This is an account of results in patent US10857128B2, “Methods and compositions for treating inflammatory diseases” (Helmholtz Zentrum München Deutsches Forschungszentrum für …, priority 2017, dated 2020).

Test [1] has as its system CCL17 secretion of human Hodgkin lymphoma KM-H2 cells. The test can be described thus: CCL17 secretion bioassay with KM-H2 cells (ELISA). As to conditions: different concentrations, 24 h. The format is cell-based. As for the experimental part: Human T cell line KM-H2. The human Hodgkin lymphoma T cell line (KM-H2) was purchased from the Leibniz Institute DSMZ-German Collection of Microorganisms and Cell Cultures, Braunschweig, Germany. 3-5×10^6 KM-H2 cells were grown in 4 mL RPMI 1640 per well in 6-well-plates (Nunc, Wiesbaden, Germany). All eukaryotic cells were cultured in 5% CO2 at 37° C. (HeraCell 240 and Heraeus BDD 6220, Thermo Fisher Scientific, Waltham, USA). Viability of cells after treatment with bacterial supernatants was assessed by trypan blue, 7-AAD and CellTiter-Blue® staining. (FIG. 9A-C)
Quantification of CCL17 and cytokines in eukaryotic cell culture supernatants. CCL17 was quantified in cell culture supernatants of KM-H2 cells using ELISA reagent Quantikine CCL17/TARC, (R&D Systems, Minneapolis, USA) according to the manufacturer's instructions (ELISA reader MRXII, Thermo Fisher Scientifc, Waltham, USA).
Bioassays for screening for immune modulatory activity in probiotic supernatants. Two biological assays based on down-modulation of costimulatory molecules on human DCs, and of CCL17-secretion by a human Hodgkin lymphoma T cell line (KM-H2) were set up. […]
Similarly, 200 μL supernatants were added to 3-5×10^6 KM-H2 cells for 24 h. Supernatants were collected from KM-H2 by centrifugation and stored at −80° C. until quantification of CCL17. […]
A general note: In an ELISA, binding on a coated surface is turned into a signal by an enzyme label.

Test [2] deals with gut microbiota. Nature of the test: Gut microbial diversity by 16S rRNA barcoding of caecum samples. The format is in vivo, Balb/c mice. As for the experimental part: Bacterial 16S rRNA gene amplification and diversity analysis. Diversity analysis of 16S rRNA genes was performed by amplicon sequencing. In the first PCR reaction, bacterial genomic DNA was subjected to 16S rRNA gene amplifications using the primer S-D-Bact-0785-a-S-18 [5′-GGMTTAGATACCCBDGTA-3′] (SEQ ID NO: 1) and S-*-Univ-1100-a-A-15 [5′-[…]-3′] (SEQ ID NO: 2) as already mentioned. The reaction mixture of 25 μL in total was composed of 5 ng×μL-1 template DNA, 10 μM of each primer, 10 mM dNTPs (Fermentas, Vilnius, Lithuania), 5% of dimethyl sulfoxide (Sigma-Aldrich, St. Louis, USA), 5 U×μL-1 of FastStart High Fidelity Polymerase (Roche Diagnostics, Mannheim, Germany), 10× FastStart Buffer, and nuclease-free water (Life Technologies, Carlsbad, Calif., USA). The PCR started with an initialization at 95° C. for 5 min, followed by 28 cycles of denaturation at 94° C. for 45 sec, annealing at 44° C. for 45 sec, and elongation at 72° C. for 45 sec. A final elongation step at 72° C. for 5 min completed the PCR reaction. To minimize contamination with primer dimers, generated fragments were cut out of the gel after standard agarose gel electrophoresis and purified with the NucleoSpin Gel and PCR Clean-up Kit (Macherey-Nagel, Düren, Germany).
During the second PCR, Illumina sequencing adapters as well as dual indices were attached to the purified amplicons using the Nextera XT Index Kit (Illumina, San Diego, Calif., USA). The reaction volume was 50 μL in total and contained 5 μL of genomic DNA, 5 μL of each Nextera XT Index Primer, 25 μl 2× KAPA HiFi HotStart ReadyMix (Kapa Biosystems, Wilmington, Mass., USA), and 10 μL of nuclease-free water (Life Technologies, Carlsbad, Calif., USA). The PCR reaction was performed according to the following thermal profile: 95° C. for 3 min, followed by 8 cycles of 95° C. for 30 sec, 55° C. for 30 sec, 72° C. for 30 sec, and finalized by 72° C. for 5 min. The PCR products were cleaned up with the Agencourt AMPure XP system (Beckman Coulter, Brea, Calif., USA), DNA was quantified and the DNA quality was controlled using the 2100 Bioanalyzer Instrument (Agilent Technologies, Santa Clara, Calif., USA), and sequenced with the MiSeq instrument (Illumina, San Diego, Calif., USA).
For testing prevention of AAI, mice received 50 mM D-tryptophan starting at least three days before the first sensitization until sacrificing on day 25. For microbiome analyses, the caecum was cut off and immediately stored at −80° C. until further processing.
Microbial Diversity. Bacterial diversity was assessed by molecular barcoding of 16S rRNA genes in caecum samples of six animals per group. To this end, DNA was directly extracted from the caecum using a kit based protocol (PowerSoil DNA Isolation Kit, MO BIO Laboratories, Carlsbad, Calif., USA). 315 bp fragments were amplified within the variable region V5 and V6 of the 16S rRNA gene using S-D-Bact-0785-a-S-18[5′-GGMTTAGATACCCBDGTA-3′] (SEQ ID NO: 1) and S-*-Univ-1100-a-A-15 [5′-[…]-3′] (SEQ ID NO: 2) as primers (Klindworth et al., Nucleic Acids Res. 2013 Jan. 7; 41(1):el). Sequencing of amplicons was performed on the Illumina MiSeq platform (Illumina, San Diego, Calif., USA) using paired end technology (see section “Bacterial 16S rRNA gene amplification and diversity analysis” herein). Sequences are deposited in NCBI accession number PRJNA304109.
Reads were analyzed with the software package QIIME. Operational taxonomic units (OTUs) were picked within the 13_8 version of the Greengenes reference database (McDonald et al., ISME J. 2012 March; 6(3):610-8) at a similarity level of 95% sequence identity. Sequences were subsampled to 15000 reads per sample, which reflects the number of reads obtained in the sample with the lowest number of reads after quality control. This number was still sufficient to reach a plateau when collectors' curves were calculated on the basis of OTU95. […]

Each structure is given as a SMILES string.

Turning to `N[C@H](Cc1c[nH]c2ccccc12)C(=O)O` [D-tryptophan], the “immune activity of synthetic tryptophan isomers in the CCL17 bioassay” value in test [1] was “dose dependent immune activity”. Besides, the “impact on microbial community composition” value in test [2] (AAI mice) is on record as “significant”. For the same molecule, in test [2] (AAI mice with D-Trp), the “abundance of Ruminococcaceae” value is recorded as 8.9%. Moreover, the “bacterial diversity (alpha-diversity) of AAI mice” value in test [2] (AAI mice, 50 mM in drinking water) is listed as “increased”. The “abundance of Rikenellaceae” value in test [2] (D-Trp groups) was 1.1-2.0%. Further, the “abundance of Lachnospiraceae” value was found to be 20.6% in test [2] (D-tryptophan treated AAI mice) and 27.5% in test [2] (D-tryptophan treated mice without AAI). Moreover, the “relative abundance of Odoribacteraceae” value in test [2] (both groups of supplemented animals) amounted to 3.9%. Moreover, in test [2] (mouse, in vivo), the “members of the S24-7 family” value was “neither affected”.
